Measured values: US9896423B2, “Deuterium substituted 1-[2-(2,4-dimethyl-phenylsulfanyl)-phenyl]piperazine compound or derivatives thereof, and pharmaceutical composition and use thereof” (Jiangsu Jibeier Pharmaceutical Co. Ltd., priority 2014, dated 2018)
Values joined by “and” are separate entries in the source; they are usually repeats but may differ in a detail not shown here. Equal values may be shown once. Where a name gives a salt, the structure may show the parent alone. Read-outs that look alike come from different tables or passages of the source.

Assay: Pharmacokinetic test in rats, intravenous injection
Format: in vivo, SD rats
Settings: for concentration at 24 h / concentration at 0.25 h / concentration at 0.5 h / concentration at 1 h / concentration at 2 h / concentration at 3 h: intravenous, 2 mg/kg iv; for concentration at 0.25 h / concentration at 0.5 h / concentration at 1 h / concentration at 2 h / concentration at 3 h: Sprague-Dawley
Procedure: The preferred compound of the present disclosure was assessed in rats for its pharmacokinetic profile.
SD rats, male and female, weighing 150 to 250 g
Mobile phase: 10 mM ammonium formate aqueous solution:methanol=15:85
The ionization source was electrospray ionization source. The detection mode was positive mode. Multiple reaction monitoring (MRM) was used as the scanning mode. The ion reaction for the quantitative analysis was the following: m/z was 305.2\150.0 for XX, and 256.1\167.1 for diphenhydramine (the internal standard).
Four male SD rats were taken. The dosage was calculated as 5 mL/kg body weight and 2 mg/kg. XX or YY was dissolved in DMSO (3% of a total volume) and castor oil (3% of the total volume) was added to the solution, followed by agitating with a vortex mixer. Subsequently, saline was added to the mixture to the total volume to afford the intravenous injection for the rats. The injections were intravenously administered to four male SD rats. Blood from the rats' orbits was collected 3 min, 8 min, 15 min, 30 min, 1 hr, 2 hr, 3 hr, 4 hr, 6 hr, 9 hr, 12 hr and 24 hr later after the injection, respectively.
After the blood collection, the tubes were immediately gently turned upside down at least five times to ensure sufficient mixing, and placed on ice. Heparin was added for anticoagulation. The samples were centrifuged at 8000 rpm for 5 min to separate serum from erythrocyte. The serum was transferred with a pipettor to 2 mL polypropylene (PP) tubes, which were marked with the name of the compound and the time points, and stored in a refrigerator at −40° C. before LC-MS analysis. Samples with high concentrations were diluted with rat blank plasma.
2.5 μL of Meth-H2O and 5 μL of the internal standard solution (20 ng/mL, IS) were added to 50 μL of the plasma. Subsequently, 150 μL of methanol was added to the mixture to precipitate protein and the samples were then centrifuged at 13000 rpm for 5 min. The upper organic phase was taken out, filtrated with a 0.22 μM microporous membrane, and 2 μL of the sample was injected for the LC-MS analysis.

[1] = male, rat, plasma, 2 mg/kg, individual rats, read-out: Concentrations in Plasma of Rats after Intravenous Injection
[2] = male, rat, plasma, 2 mg/kg, mean, read-out: Concentrations in Plasma of Rats after Intravenous Injection, Mean ± SD
[3] = rats, iv 2 mg/kg, individual rats, 2 mg/kg

## [2H]C([2H])([2H])c1ccc(Sc2ccccc2N2CCNCC2)c(C([2H])([2H])[2H])c1 [XX, 1-{2-[2,4-bis(trideuteriomethyl)phenylsulfanyl]phenyl}piperazine hydrobromic acid salt]
male, SD, rat, plasma, 2 mg/kg, individual rats, read-out: Concentrations in Plasma of Rats after Intravenous Injection
  concentration at 24 h: 3.38 ng/mL
male, SD, rat, plasma, 2 mg/kg, mean, read-out: Concentrations in Plasma of Rats after Intravenous Injection, Mean ± SD
  concentration at 24 h: 3.13 ± 0.5 ng/mL
male, SD, rat, plasma, iv, 2 mg/kg, rats, iv 2 mg/kg, XX n = 4, YY n = 3, read-out: AUC0-∞, Mean ± SD
  AUC(0-inf): 482 ± 23.6 ng·h/mL
male, SD, rat, plasma, iv, 2 mg/kg, rats, iv 2 mg/kg, XX n = 4, YY n = 3, read-out: Cmax, Mean ± SD
  Cmax: 126 ± 5.68 ng/mL
male, SD, rat, plasma, iv, 2 mg/kg, rats, iv 2 mg/kg, XX n = 4, YY n = 3, read-out: MRT0-∞, Mean ± SD
  MRT inf: 6.87 ± 0.84 h
male, SD, rat, plasma, iv, 2 mg/kg, rats, iv 2 mg/kg, XX n = 4, YY n = 3, read-out: Vz, Mean ± SD
  Vd: 32.9 ± 9.76 L/kg
male, SD, rat, plasma, iv, 2 mg/kg, rats, iv 2 mg/kg, XX n = 4, YY n = 3, read-out: t1/2, Mean ± SD (converted)
  half-life: 328 ± 89.4 min
male, SD, rat, plasma, iv, 2 mg/kg, rats, iv 2 mg/kg, individual rats 1-4 (Table 9), read-out: AUC0-1
  AUC(0-t): 462 ng·h/mL
male, SD, rat, plasma, iv, 2 mg/kg, rats, iv 2 mg/kg, individual rats, read-out: AUC0-∞
  AUC(0-inf): 467 ng·h/mL
male, SD, rat, plasma, iv, 2 mg/kg, rats, iv 2 mg/kg, individual rats, read-out: Cmax
  Cmax: 134 ng/mL
male, SD, rat, plasma, iv, 2 mg/kg, rats, iv 2 mg/kg, individual rats, read-out: MRT0-∞
  MRT inf: 6.59 h
male, SD, rat, plasma, iv, 2 mg/kg, rats, iv 2 mg/kg, individual rats, read-out: Vz
  Vd: 23 L/kg
male, SD, rat, plasma, iv, 2 mg/kg, rats, iv 2 mg/kg, individual rats, read-out: t1/2 (converted)
  half-life: 223 min
male, SD, rat, plasma, iv, 2 mg/kg, rats, iv 2 mg/kg, n = 4 (Table 9), read-out: AUC0-1, Mean ± SD
  AUC(0-t): 461 ± 29.5 ng·h/mL
[1]
  concentration at 0.25 h: 78.1 ng/mL
  concentration at 0.5 h: 76.6 ng/mL
  concentration at 1 h: 72.2 ng/mL
  concentration at 2 h: 60.7 ng/mL
  concentration at 3 h: 49.6 ng/mL
[2]
  concentration at 0.25 h: 77.8 ± 0.78 ng/mL
  concentration at 0.5 h: 75.2 ± 2.61 ng/mL
  concentration at 1 h: 69.9 ± 3.51 ng/mL
  concentration at 2 h: 63.2 ± 7.01 ng/mL
  concentration at 3 h: 47.8 ± 6.6 ng/mL
rats, iv 2 mg/kg, XX n = 4, YY n = 3
  CL, Mean ± SD: 4.16 ± 0.20 L/h/k
rats, iv 2 mg/kg, individual rats 1-4 (Table 9), 2 mg/kg
  AUC0-1: 492.9 µg·h/L and 466.0 µg·h/L and 421.5 µg·h/L
[3]
  AUC0-∞: 512.0 µg·h/L and 489.7 µg·h/L and 459.8 µg·h/L
  CL: 42.8 L/h/k and 3.91 L/h/k and 4.09 L/h/k and 4.35 L/h/k
  Cmax: 123.2 ng/mL and 127.2 ng/mL and 121.4 ng/mL
  MRT0-∞: 6.14 h and 6.67 h and 8.08 h
  Vz: 29.0 L/kg and 33.4 L/kg and 46.0 L/kg
  t1/2: 5.15 h and 5.66 h and 7.33 h
